Data set [1] has as its system EGFR and downstream cascade phosphorylation in A431 cells. Kind of data set: Western blot analysis in A431 cells. Format: cell-based. The settings on record: 1 h inhibitor then EGF stimulation. The procedure:
and incubated at 37 °C and 5% CO2. On day 2 cells were starved over night with media containing 0.5% FBS to be incubated on day 3 for 1 h with EGFR inhibitors following an additional 30 min of EGF stimulation at 50 ng/mL. The media was discarded and cells were washed once with DPBS
1x. Using 100 μL per well of lysis buffer, cells were then scraped off and lysed while rotating (Stuart Scientific, Staffordshire, UK) for 1 h at 4 °C. […] Supernatant was transferred into new tube and protein concentrations were determined with the Bio-Rad Protein Assay (Bio-Rad Laboratories, Hercules, CA). […]
captured and quantified using a FUJI LAS3000 system with Science Lab 2001 ImageGauge 4.0 software (Fujifilm Medial Systems, Stamford CT, USA). […]
glycerol, 1 mM TCEP, pH 8) on ice for 1 h. We analyzed the aliquots by ESI-MS using an Thermo Fisher Scientific Dionex UltiMate 3000 HPLC system connected to a Thermo Fisher Scientific Velos Pro (2d ion trap). Therefore, 5 μL of sample was injected and separated using a Vydac 214TP C4 5 μm column (150 mm x 2.1 mm) starting at 20% of solvent B for 5 minutes followed by a gradient up to 90% of solvent B over 14 min with a flow rate of 210 μL/min with 0.1% TFA in water as solvent A and 0.1% TFA in MeCN as solvent B. A mass range of 700 to 2000 m/z was scanned and raw data was deconvoluted and analyzed with MagTran software (Z.Q. Zhang, A.G. […]
A general note: Immunoblotting shows a protein as a band on a membrane.

In another data set the target is ErbB4 (Homo sapiens, UniProt Q15303). Kind of data set: SelectScreen kinase profiling, ErbB4. Type of data set: biochemical. The settings on record: mean ± SD of one measurement in duplicates. How it is done:
(§1) Kinase profiling of compound 17a at a concentration of 1 µM generated with the SelectScreen® Profiling Service from Life Technologies.
(§2) Figure S2. Kinase profiling of compound 17a, Illustration as waterfall plot. 9 Kinases harboring a Cysteine isostructural to Cys797 in EGFR are highlighted
(§3) Kinase % inhibition Kinase % inhibition […]
(§4) aValues are the mean ± SD of one measurement in duplicates; bKinases harboring a Cysteine isostructural to Cys797 […]
(§5) (1 picture or pasted object on this page, not shown here)

A further data set concerns the target EGFR-L861Q (Homo sapiens, UniProt P00533, L861Q). Description: SelectScreen kinase profiling, EGFR-L861Q. Type of data set: biochemical. The settings on record: mean ± SD of one measurement in duplicates. The procedure:
as §1, §2, §3, §4, §5

A further data set has as its target SRC-N1 (Homo sapiens, UniProt P12931). Description: SelectScreen kinase profiling, SRC-N1. Type of data set: biochemical. The settings on record: mean ± SD of one measurement in duplicates. The procedure:
as §1, §2, §3, §4, §5

The target in a further data set is Her2 (Homo sapiens, UniProt P04626). Description: SelectScreen kinase profiling, Her2. Type of data set: biochemical. The settings on record: mean ± SD of one measurement in duplicates. The procedure: as §1, §2, §3, §4, §5
Sequence of Her2 (P04626 23-1255): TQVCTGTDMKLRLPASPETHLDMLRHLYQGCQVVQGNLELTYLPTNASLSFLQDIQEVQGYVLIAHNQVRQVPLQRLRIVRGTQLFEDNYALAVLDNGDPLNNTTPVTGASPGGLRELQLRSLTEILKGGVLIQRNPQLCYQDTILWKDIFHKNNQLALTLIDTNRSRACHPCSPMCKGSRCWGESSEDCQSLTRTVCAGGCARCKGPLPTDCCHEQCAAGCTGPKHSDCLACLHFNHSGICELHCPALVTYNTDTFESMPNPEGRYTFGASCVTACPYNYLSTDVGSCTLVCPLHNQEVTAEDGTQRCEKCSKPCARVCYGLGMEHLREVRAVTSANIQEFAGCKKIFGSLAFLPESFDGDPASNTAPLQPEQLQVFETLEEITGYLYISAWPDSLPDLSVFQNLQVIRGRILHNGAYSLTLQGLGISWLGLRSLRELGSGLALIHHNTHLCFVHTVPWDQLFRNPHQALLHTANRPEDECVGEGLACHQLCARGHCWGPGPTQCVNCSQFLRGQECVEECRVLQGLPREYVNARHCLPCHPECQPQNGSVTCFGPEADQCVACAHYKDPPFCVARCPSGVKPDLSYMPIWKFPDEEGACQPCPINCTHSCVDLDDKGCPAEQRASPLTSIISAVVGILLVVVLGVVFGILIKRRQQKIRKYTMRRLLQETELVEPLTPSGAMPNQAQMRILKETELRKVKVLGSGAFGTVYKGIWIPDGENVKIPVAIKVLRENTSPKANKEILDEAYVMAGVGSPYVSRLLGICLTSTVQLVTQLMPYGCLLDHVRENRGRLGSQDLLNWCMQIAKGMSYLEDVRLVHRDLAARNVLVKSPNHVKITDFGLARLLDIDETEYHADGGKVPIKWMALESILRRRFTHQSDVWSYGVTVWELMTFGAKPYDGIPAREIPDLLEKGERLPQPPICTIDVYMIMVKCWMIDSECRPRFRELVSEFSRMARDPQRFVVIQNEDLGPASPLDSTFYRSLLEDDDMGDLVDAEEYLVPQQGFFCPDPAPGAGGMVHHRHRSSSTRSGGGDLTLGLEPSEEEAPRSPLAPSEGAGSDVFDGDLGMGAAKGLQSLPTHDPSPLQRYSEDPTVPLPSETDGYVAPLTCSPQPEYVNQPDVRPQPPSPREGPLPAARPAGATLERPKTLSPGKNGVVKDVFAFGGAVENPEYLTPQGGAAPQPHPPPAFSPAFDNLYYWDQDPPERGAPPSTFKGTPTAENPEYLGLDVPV
For a further data set, the target named is FGFR2 (Homo sapiens, UniProt P21802). Kind of data set: SelectScreen kinase profiling, FGFR2. Type of data set: biochemical. The settings on record: mean ± SD of one measurement in duplicates. How it is done: as §1, §2, §3, §4, §5
Another data set deals with EPHB2 (Homo sapiens, UniProt P29323). Description: SelectScreen kinase profiling, EPHB2. Format: biochemical. The settings on record: mean ± SD of one measurement in duplicates. The procedure: as §1, §2, §3, §4, §5
Sequence of EPHB2 (P29323 19-1055): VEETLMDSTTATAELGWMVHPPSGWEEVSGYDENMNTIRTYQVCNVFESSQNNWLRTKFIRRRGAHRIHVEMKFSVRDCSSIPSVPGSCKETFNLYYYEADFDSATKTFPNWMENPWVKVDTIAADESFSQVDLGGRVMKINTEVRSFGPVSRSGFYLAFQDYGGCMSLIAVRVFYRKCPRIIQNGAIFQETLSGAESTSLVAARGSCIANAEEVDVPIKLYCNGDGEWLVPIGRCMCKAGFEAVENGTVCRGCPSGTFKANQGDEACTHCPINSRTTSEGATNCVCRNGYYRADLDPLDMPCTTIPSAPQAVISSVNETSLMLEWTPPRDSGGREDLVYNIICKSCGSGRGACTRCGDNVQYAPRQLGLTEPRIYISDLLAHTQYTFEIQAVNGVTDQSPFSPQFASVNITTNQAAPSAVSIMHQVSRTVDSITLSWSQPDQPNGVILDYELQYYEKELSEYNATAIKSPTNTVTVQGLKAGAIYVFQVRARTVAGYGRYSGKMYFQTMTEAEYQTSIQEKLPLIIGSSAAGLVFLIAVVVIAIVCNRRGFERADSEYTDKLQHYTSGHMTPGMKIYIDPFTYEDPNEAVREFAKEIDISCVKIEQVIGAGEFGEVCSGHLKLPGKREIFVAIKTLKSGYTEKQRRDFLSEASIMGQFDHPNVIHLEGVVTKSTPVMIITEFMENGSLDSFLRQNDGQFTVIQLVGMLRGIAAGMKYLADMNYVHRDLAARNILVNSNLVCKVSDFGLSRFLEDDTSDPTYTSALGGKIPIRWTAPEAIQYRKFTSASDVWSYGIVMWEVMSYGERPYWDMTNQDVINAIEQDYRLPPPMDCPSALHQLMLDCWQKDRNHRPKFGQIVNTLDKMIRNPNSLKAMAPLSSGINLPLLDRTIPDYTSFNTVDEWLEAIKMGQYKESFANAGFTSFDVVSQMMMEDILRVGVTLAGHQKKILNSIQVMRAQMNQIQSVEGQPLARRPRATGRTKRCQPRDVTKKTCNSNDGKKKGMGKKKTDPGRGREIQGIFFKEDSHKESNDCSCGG
A further data set concerns the target ITK (Homo sapiens, UniProt Q08881). Description: SelectScreen kinase profiling, ITK. Format: biochemical. The settings on record: mean ± SD of one measurement in duplicates. The procedure:
as §1, §2, §3, §4, §5

A short description of another data set: Caco-2 assay. The settings on record: human. Type of data set: in vitro ADME. The procedure:
For Caco-2 cell assay, a 10 mM DMSO stock of the compound was diluted to a final concentration of 5 μM in HBSS buffer pH 7.4 and incubated for 2 hours at 37 °C and 5% CO2 on a monolayer of Caco-2 cells (ATCC) that had been grown on a transwell membrane (Millipore, Schwalbach, Germany) for 21 days. The compound concentration was measured in the receiver as well as the donor well. Apparent permeability (Papp) from either the apical to basolateral direction or vice versa […]
is the donor drug concentration at t = 0, and dQ/dt is the amount of drug transported within the given time period of 2 hours. […]

A further data set deals with EGFR-wt (Homo sapiens, UniProt P00533). Description: Kinetic characterization (Ki, kinact), EGFR-wt.
Sequence of EGFR-wt (P00533 25-1210): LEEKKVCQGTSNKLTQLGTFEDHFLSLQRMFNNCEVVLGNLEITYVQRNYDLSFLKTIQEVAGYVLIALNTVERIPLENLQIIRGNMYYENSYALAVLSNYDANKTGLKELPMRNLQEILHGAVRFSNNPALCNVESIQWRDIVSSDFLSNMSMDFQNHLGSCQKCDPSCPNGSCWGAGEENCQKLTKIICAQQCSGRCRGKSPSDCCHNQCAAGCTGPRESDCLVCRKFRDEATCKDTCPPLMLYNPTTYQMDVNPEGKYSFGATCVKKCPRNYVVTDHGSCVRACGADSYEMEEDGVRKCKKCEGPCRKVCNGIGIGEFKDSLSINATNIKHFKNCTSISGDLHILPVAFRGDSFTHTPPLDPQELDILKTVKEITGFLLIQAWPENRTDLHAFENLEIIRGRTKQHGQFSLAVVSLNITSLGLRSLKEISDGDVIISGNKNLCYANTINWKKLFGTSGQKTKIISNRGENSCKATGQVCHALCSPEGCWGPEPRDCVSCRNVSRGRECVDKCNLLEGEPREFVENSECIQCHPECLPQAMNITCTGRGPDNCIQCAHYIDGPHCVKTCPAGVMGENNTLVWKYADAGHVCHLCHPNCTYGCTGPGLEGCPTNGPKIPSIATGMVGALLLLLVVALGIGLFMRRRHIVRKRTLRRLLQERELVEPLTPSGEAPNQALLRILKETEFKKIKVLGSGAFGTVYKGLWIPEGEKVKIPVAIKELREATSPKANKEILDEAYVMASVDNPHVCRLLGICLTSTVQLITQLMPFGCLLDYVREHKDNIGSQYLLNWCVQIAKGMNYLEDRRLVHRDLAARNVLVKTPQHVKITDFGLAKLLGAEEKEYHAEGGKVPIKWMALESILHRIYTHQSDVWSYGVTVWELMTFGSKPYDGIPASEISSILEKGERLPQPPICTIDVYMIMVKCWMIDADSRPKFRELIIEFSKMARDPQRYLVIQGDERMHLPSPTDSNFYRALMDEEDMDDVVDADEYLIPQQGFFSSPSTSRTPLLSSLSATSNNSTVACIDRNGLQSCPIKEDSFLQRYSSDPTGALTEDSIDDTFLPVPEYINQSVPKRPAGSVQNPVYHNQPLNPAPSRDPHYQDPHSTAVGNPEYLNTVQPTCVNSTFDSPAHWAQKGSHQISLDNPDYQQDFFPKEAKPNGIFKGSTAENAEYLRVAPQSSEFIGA
The target of the next data set is EGFR-L858R/T790M (Homo sapiens, UniProt P00533, L858R/T790M). Description: Kinetic characterization (Ki, kinact), EGFR-L858R/T790M.
Sequence of EGFR-L858R/T790M (P00533 25-1210 T790M/L858R): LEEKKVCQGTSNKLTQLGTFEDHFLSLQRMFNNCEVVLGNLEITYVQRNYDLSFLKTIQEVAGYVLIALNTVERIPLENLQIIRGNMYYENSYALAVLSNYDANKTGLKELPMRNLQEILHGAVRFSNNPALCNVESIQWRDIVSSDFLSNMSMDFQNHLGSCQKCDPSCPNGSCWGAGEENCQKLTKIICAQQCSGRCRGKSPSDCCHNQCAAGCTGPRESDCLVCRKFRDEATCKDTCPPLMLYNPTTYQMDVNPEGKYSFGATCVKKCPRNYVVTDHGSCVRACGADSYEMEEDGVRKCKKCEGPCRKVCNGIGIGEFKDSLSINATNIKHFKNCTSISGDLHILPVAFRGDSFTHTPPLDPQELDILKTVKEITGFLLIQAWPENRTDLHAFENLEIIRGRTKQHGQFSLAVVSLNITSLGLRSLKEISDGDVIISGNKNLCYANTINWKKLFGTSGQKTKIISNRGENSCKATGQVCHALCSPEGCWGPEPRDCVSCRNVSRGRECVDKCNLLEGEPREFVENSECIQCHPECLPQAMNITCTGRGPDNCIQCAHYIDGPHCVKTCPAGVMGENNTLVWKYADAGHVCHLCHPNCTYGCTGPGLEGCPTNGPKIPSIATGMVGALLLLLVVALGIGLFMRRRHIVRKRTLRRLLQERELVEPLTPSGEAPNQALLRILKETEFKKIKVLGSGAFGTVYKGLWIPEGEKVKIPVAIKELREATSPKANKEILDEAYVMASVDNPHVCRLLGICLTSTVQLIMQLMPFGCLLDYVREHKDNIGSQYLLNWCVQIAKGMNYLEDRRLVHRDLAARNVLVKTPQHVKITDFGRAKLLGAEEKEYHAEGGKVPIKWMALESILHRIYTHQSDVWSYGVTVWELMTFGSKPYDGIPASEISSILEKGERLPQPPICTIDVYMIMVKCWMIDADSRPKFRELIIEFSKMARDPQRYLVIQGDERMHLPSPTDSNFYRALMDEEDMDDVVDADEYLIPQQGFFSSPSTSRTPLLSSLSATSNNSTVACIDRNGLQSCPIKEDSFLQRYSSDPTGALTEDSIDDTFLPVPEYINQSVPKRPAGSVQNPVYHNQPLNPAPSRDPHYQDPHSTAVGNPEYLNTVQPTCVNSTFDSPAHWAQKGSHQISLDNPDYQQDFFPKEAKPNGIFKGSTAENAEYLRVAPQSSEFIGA

For orientation: inhibition means the relative decrease from the control value, in per cent. Read a low inhibition as a response near the control. Usually Ki stands for a dissociation constant, usually derived from enzyme kinetics or from competition with a known ligand. A lower Ki goes with tighter binding. Usually kinact stands for the maximal first-order rate at which the target is inactivated. As a reminder, the kinact/KI is the maximal inactivation rate divided by the concentration that gives half of it.

Take `C=CC(=O)Nc1cccc(-c2c(-c3ccc(CN4CCN(C)CC4)cc3)[nH]c3ncnc(OC)c23)c1` [Compound 17a]: the “concentration at which phosphorylation of EGFR and downstream proteins was reduced” value in [1] is “about 1 μM”. The inhibition at 1 µM came to 100 ± 1% against ErbB4; 96 ± 2% at EGFR-L861Q; 95 ± 1% at SRC-N1; 82 ± 6% on Her2; 76 ± 1% against FGFR2; 72 ± 3% against EPHB2. Besides, at ITK, at 1 µM the inhibition was 70 ± 2%.
With `C=CC(=O)Nc1cccc(-c2c(-c3ccc(N4CCN(C)CC4)cc3)[nH]c3ncnc(OCC(C)C)c23)c1` [Compound 19h], the efflux ratio at 2 h, 5 µM in the data set “Caco-2 assay” (Caco-2, pH 7.4, efflux ratio, read-out: Caco-2: ratio (BA) : (AB)) came to 3.1. Also, in the data set “Caco-2 assay” (Caco-2, apical to basolateral, 5 μM, pH 7.4, 2 hours, read-out: Caco-2: Papp AB), the Papp A→B at 2 h, 5 μM was 1.2 ×10⁻⁶ cm/s. In addition, the Papp B→A at 2 h, 5 μM in the data set “Caco-2 assay” (Caco-2, basolateral to apical, 5 μM, pH 7.4, 2 hours, read-out: Caco-2: Papp BA) was determined as 3.6 ×10⁻⁶ cm/s. At EGFR-wt, the Ki came to 400 ± 100 pM, the kinact is 0.000833 s⁻¹ and the second-order inactivation constant (kinact/KI) is 1.98e+06 ± 220000 M⁻¹ s⁻¹. At EGFR-L858R/T790M, the Ki amounted to 400 ± 100 pM, the kinact was 0.00283 s⁻¹ and the inactivation efficiency (kinact/KI) was found to be 8.08e+06 ± 770000 M⁻¹ s⁻¹.

These data come from publication PMC6886544.
